What all share (experiment): SelectScreen Kinase Profiling, single point inhibition and IC50 for off-target kinases
Holding throughout (assay type): biochemical

Assay [1] deals with off-target kinases (Homo sapiens, UniProt P07949). The settings on record: RET, ATP Km app, ZLYTE.
For assay [2], the target named is T1, off-target kinases (Homo sapiens, UniProt Q8IYT8).
T1 sequence (Q8IYT8 1-1036): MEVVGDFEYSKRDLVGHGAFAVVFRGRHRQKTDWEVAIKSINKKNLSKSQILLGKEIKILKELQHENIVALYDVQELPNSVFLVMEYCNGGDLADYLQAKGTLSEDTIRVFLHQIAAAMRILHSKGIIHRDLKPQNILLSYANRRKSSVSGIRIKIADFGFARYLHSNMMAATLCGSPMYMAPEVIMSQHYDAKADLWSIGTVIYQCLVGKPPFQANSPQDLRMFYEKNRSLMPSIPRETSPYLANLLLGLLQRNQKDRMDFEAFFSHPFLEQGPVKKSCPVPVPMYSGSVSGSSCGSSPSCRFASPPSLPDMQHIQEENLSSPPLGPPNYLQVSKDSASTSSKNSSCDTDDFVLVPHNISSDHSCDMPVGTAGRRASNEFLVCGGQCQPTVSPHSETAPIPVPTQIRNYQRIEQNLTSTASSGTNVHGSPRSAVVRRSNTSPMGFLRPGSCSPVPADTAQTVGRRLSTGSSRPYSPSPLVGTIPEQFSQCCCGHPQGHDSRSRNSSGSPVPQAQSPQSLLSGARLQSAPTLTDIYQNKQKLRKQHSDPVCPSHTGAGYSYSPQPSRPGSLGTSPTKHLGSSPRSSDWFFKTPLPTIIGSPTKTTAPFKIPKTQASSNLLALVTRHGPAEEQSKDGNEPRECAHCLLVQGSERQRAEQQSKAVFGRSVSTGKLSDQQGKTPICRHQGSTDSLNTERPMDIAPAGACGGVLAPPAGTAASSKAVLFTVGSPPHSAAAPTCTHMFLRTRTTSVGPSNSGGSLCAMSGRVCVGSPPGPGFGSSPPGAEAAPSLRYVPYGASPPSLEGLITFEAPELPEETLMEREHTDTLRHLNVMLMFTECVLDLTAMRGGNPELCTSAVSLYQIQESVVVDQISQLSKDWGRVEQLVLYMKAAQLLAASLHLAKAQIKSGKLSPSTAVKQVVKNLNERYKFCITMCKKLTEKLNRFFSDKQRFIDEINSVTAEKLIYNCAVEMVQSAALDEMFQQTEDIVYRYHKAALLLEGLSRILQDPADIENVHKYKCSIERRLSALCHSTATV
The note with it: ULK2, LanthaScreen Binding. (In general: In TR-FRET formats the signal depends on donor and acceptor labels being close together.)

Assay [3] concerns the target off-target kinases (Homo sapiens, UniProt Q15759). The settings on record: MAPK11 (p38 beta), ZLYTE, ATP Km app.

Read-outs that look alike come from different tables or passages of the source.

Inhibition data for one compound are collected here from US11572590B2, “Methods for evaluating tumor cell spheroids using 3D microfluidic cell culture device” (Dana-Farber Cancer Institute, Inc., priority 2017, dated 2023).

Sequence of off-target kinases (Homo sapiens, UniProt Q15759) (Q15759 whole entry): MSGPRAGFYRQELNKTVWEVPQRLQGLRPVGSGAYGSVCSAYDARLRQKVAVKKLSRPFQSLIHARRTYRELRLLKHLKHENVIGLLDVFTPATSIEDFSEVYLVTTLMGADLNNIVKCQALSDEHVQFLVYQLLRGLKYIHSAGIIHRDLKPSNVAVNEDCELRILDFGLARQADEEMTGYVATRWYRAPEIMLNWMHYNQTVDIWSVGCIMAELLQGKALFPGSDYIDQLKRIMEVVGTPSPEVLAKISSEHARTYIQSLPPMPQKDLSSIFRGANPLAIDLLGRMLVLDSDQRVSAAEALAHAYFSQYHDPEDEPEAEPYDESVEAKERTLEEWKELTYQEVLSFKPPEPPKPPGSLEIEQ
Sequence of off-target kinases (Homo sapiens, UniProt P07949) (P07949 29-1114): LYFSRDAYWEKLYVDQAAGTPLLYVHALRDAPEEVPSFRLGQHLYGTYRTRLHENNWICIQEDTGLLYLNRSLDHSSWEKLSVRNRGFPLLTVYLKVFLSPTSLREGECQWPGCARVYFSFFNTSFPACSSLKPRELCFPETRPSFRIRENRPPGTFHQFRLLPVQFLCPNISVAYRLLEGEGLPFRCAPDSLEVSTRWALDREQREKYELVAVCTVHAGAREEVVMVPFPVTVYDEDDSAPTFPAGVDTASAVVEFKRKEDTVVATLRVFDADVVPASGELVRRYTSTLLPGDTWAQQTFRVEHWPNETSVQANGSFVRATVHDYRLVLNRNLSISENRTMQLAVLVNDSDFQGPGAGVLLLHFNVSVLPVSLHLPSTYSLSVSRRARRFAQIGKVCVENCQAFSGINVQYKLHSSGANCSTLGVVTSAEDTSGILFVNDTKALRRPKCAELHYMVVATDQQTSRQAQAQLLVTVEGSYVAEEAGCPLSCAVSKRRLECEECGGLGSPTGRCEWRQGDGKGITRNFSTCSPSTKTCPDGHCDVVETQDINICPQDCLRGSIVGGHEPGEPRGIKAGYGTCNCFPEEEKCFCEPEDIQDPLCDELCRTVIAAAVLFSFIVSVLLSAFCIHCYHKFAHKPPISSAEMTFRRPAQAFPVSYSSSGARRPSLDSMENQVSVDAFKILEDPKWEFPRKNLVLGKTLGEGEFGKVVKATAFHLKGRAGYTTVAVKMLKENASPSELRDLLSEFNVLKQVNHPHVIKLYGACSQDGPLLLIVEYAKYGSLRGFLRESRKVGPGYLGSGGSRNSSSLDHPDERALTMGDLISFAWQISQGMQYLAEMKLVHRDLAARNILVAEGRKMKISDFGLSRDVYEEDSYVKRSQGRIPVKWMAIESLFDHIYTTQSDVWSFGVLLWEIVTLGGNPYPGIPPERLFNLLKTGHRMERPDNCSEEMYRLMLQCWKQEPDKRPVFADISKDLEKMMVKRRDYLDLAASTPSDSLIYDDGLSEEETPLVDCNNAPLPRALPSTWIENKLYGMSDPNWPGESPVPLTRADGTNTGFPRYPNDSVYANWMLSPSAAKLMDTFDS

Take `N#Cc1cc(-c2ncnc(Nc3ccc(N4CCN(C5COC5)CC4)cc3)n2)ccc1OC1CCOCC1` [Compound 1, 5-(4-((4-(4-(oxetan-3-yl)piperazin-1-yl)phenyl)amino)-1,3,5-triazin-2-yl)-2-((tetrahydro-2H-pyran-4-yl)oxy)benzonitrile]: the inhibition is 46% on off-target kinases [1] (read-out: % Inhibition 1); 42% at off-target kinases [1] (read-out: % Inhibition 2); 44% on off-target kinases [1] (read-out: % Inhibition Avg); 86% at off-target kinases [2] (read-out: % Inhibition 1); 90% at off-target kinases [2] (read-out: % Inhibition 2); 88% on off-target kinases [2] (read-out: % Inhibition Avg). Further, the inhibition at off-target kinases [3] (read-out: % Inhibition 1) was found to be 6%; at off-target kinases [3] (read-out: % Inhibition 2), 4%; at off-target kinases [3] (read-out: % Inhibition Avg), 5%.

One may read the inhibition as the percentage by which the read-out fell short of the control.
